Laboratory results reported in ChEMBL document CHEMBL1130559, “The synthesis and antitumor evaluation of unsymmetrical bis-imides” (Bioorg Med Chem Lett, 1997).

Columns and labels:
Nucleic Acid [1] = test: In vitro DNA poly-dAdT binding by ethidium bromide displacement; type: nucleic-acid assay
Nucleic Acid [2] = test: In vitro DNA poly-dGdC binding by ethidium bromide displacement; type: nucleic-acid assay
L1210 = test: In vitro 50% inhibitory activity against L1210 murine leukemia; type: functional, cell-based; settings: Mus musculus
Mus musculus [3] = test: Compound was evaluated in vivo for the maximum tolerated dose (MTD) against MX-1 (breast) human solid tumors implanted in nude mice; type: functional
[4] = Solubility in water; type: physicochemical; settings: read-out: S
Mus musculus [5] = test: Compound was evaluated in vivo for the percent tumor growth inhibition against human solid tumors implanted in nude mice MX-1 (breast), iv; type: functional
Mus musculus [6] = test: Compound was evaluated in vivo for the percent tumor growth inhibition against human solid tumors implanted in nude mice DLD-2 (colon), iv; type: functional
Mus musculus [7] = test: Compound was evaluated in vivo for the percent tumor growth inhibition against human solid tumors implanted in nude mice LX-1 (lung), iv; type: functional
Mus musculus [8] = test: Compound was evaluated in vivo for the maximum tolerated dose against human solid tumors implanted in nude mice MX-1 (breast); type: functional
Mus musculus [9] = test: Compound was evaluated in vivo for the maximum tolerated dose against human solid tumors implanted in nude miceDLD-2 (colon); type: functional
Mus musculus [10] = test: Compound was evaluated in vivo for the maximum tolerated dose against human solid tumors implanted in nude miceLX-1 (lung); type: functional
Mus musculus [11] = test: Compound was evaluated in vivo for the maximum tolerated dose against the following human solid tumors implanted in nude miceDLD-2 (colon); type: functional
Mus musculus [12] = test: Compound was evaluated in vivo for the maximum tolerated dose against the following human solid tumors implanted in nude miceLX-1 (lung); type: functional
Mus musculus [13] = test: Compound was evaluated in vivo for the maximum tolerated dose against the following human solid tumors implanted in nude miceMX-1 (breast); type: functional
Mus musculus [14] = test: Compound was evaluated in vivo for the maximum tolerated dose against the following human solid tumors implanted in nude mice MX-1 (breast); type: functional

| Compound | IC50 (Nucleic Acid [1]) | IC50 (Nucleic Acid [2]) | IC50 (L1210) | solubility [4] | also measured |
| --- | --- | --- | --- | --- | --- |
| COc1ccc2cc3c4c(cccc4c2c1)C(=O)N([C@H](C)CNCCNC[C@@H](C)N1C(=O)c2cccc4cc([N+](=O)[O-])cc(c24)C1=O)C3=O | 800 nM | 130 nM | 250 nM | – | – |
| CS(=O)(=O)O.CS(=O)(=O)O.Cc1cnc2c(c1)cc1c3c(cc([N+](=O)[O-])cc32)C(=O)N([C@H](C)CNCCNC[C@@H](C)N2C(=O)c3cccc4cc([N+](=O)[O-])cc(c34)C2=O)C1=O | 610 nM | 73 nM | 41 nM | – | MTD (Mus musculus [3]): 6 mg/kg |
| C[C@H](CNCCNC[C@@H](C)N1C(=O)c2cccc3c2c(cc2ccc(C(F)(F)F)cc23)C1=O)N1C(=O)c2cccc3cc([N+](=O)[O-])cc(c23)C1=O | 2550 nM | 170 nM | 450 nM | – | – |
| C[C@H](CNCCNC[C@@H](C)N1C(=O)c2cccc3c2c(cc2cc(F)cnc23)C1=O)N1C(=O)c2cccc3cc([N+](=O)[O-])cc(c23)C1=O | 1420 nM | 59 nM | 64 nM | – | – |
| CS(=O)(=O)O.CS(=O)(=O)O.C[C@H](CNCCNC[C@@H](C)N1C(=O)c2ccc3c4c(ccc(c24)C1=O)CC3)N1C(=O)c2cccc3cc([N+](=O)[O-])cc(c23)C1=O | 1570 nM | 110 nM | 75 nM | 29 mg/mL | Inhibition (Mus musculus [5]): 97%; Inhibition (Mus musculus [6]): 98%; Inhibition (Mus musculus [7]): 95%; MTD (Mus musculus [8]): 12.5 mg/kg; MTD (Mus musculus [9]): 12.5 mg/kg; MTD (Mus musculus [10]): 10 mg/kg |
| C[C@H](CNCCNC[C@@H](C)N1C(=O)c2cccc3c2c(cc2ccc(F)cc23)C1=O)N1C(=O)c2cccc3cc([N+](=O)[O-])cc(c23)C1=O | 1510 nM | 110 nM | 310 nM | – | – |
| C[C@H](CNCCNC[C@@H](C)N1C(=O)c2cc([N+](=O)[O-])cc3c2c(cc2ccncc23)C1=O)N1C(=O)c2cccc3cc([N+](=O)[O-])cc(c23)C1=O | 880 nM | 62 nM | 51 nM | – | – |
| C[C@H](CNCCNC[C@@H](C)N1C(=O)c2cccc3c2c(cc2ccccc23)C1=O)N1C(=O)c2cccc3cc([N+](=O)[O-])cc(c23)C1=O | 1020 nM | 970 nM | 420 nM | – | – |
| CS(=O)(=O)O.CS(=O)(=O)O.C[C@H](CNCCNC[C@@H](C)N1C(=O)c2cccc3c2c(cc2ccncc23)C1=O)N1C(=O)c2cccc3cc([N+](=O)[O-])cc(c23)C1=O | 1200 nM | 88 nM | 35 nM | 65 mg/mL | Inhibition (Mus musculus [6]): 99%; Inhibition (Mus musculus [7]): 94%; MTD (Mus musculus [11]): 6 mg/kg; MTD (Mus musculus [12]): 6 mg/kg; MTD (Mus musculus [13]): 6 mg/kg |
| C[C@H](CNCCNC[C@@H](C)N1C(=O)c2cc([N+](=O)[O-])cc3c2c(cc2cccnc23)C1=O)N1C(=O)c2cccc3cc([N+](=O)[O-])cc(c23)C1=O | 1570 nM | 85 nM | 24 nM | – | – |
| CS(=O)(=O)O.CS(=O)(=O)O.C[C@H](CNCCNC[C@@H](C)N1C(=O)c2cccc3c2c(cc2cccnc23)C1=O)N1C(=O)c2cccc3cc([N+](=O)[O-])cc(c23)C1=O | 1080 nM | 73 nM | 250 nM | > 35.6 mg/mL | MTD (Mus musculus [3]): 6.2 mg/kg |
| CS(=O)(=O)O.CS(=O)(=O)O.C[C@H](CNCCNC[C@@H](C)N1C(=O)c2cccc3cc([N+](=O)[O-])cc(c23)C1=O)N1C(=O)c2cccc3cc([N+](=O)[O-])cc(c23)C1=O [BISNAFIDE DIMESYLATE] | 1000 nM | 40 nM | 34 nM | 3.5 mg/mL | Inhibition (Mus musculus [5]): >96%; Inhibition (Mus musculus [6]): 99%; Inhibition (Mus musculus [7]): 96%; MTD (Mus musculus [14]): 10 mg/kg; MTD (Mus musculus [11]): 10 mg/kg; MTD (Mus musculus [12]): 10 mg/kg |
